According to ChEMBL document CHEMBL1944637, “Asymmetric synthesis and cytotoxicity of (-)-saframycin A analogues” (Eur J Med Chem, 2012):

Assays:
HeLa = assay: Cytotoxicity against human HeLa cells assessed as cell viability after 72 hrs by MTT assay; type: functional, cell-based
[1] = Cytotoxicity against human HELF cells assessed as cell viability after 72 hrs by MTT assay; type: functional, cell-based
Bel-7402 = assay: Cytotoxicity against human Bel7402 cells assessed as cell viability after 72 hrs by MTT assay; type: functional, cell-based; settings: Bel-7402, 72 h
HCT-8 = assay: Cytotoxicity against human HCT8 cells assessed as cell viability after 72 hrs by MTT assay; type: functional, cell-based; settings: HCT-8, 72 h
A2780 = assay: Cytotoxicity against human A2780 cells assessed as cell viability after 72 hrs by MTT assay; type: functional, cell-based; settings: A2780, 72 h
KB = assay: Cytotoxicity against human KB cells assessed as cell viability after 72 hrs by MTT assay; type: functional, cell-based
KETR3 = assay: Cytotoxicity against human Ketr3 cells assessed as cell viability after 72 hrs by MTT assay; type: functional, cell-based; settings: KETR3, 72 h
A549 [2] = assay: Cytotoxicity against human A549 cells assessed as cell viability after 72 hrs by MTT assay; type: functional, cell-based; settings: A549, 72 h
[3] = Cytotoxicity against human BGC803 cells assessed as cell viability after 72 hrs by MTT assay; type: functional, cell-based; settings: BGC803, 72 h
MCF7 = assay: Cytotoxicity against human MCF7 cells assessed as cell viability after 72 hrs by MTT assay; type: functional, cell-based; settings: MCF7, 72 h
A549 [4] = assay: Ratio of Saframycin A IC50 to compound IC50 for human A549 cells; type: functional

| Compound | IC50 (HeLa) [nM] | IC50 [1] [nM] | IC50 (Bel-7402) [nM] | IC50 (HCT-8) [nM] | IC50 (A2780) [nM] | IC50 (KB) [nM] | IC50 (KETR3) [nM] | IC50 (A549 [2]) [nM] | IC50 [3] [nM] | IC50 (MCF7) [nM] | Ratio IC50 (A549 [4]) |
| --- | --- | --- | --- | --- | --- | --- | --- | --- | --- | --- | --- |
| COC1=C(C)C(=O)C2=C(C1=O)[C@@H]1[C@@H]3CC4=C(C(=O)C(OC)=C(C)C4=O)[C@H](CNC(=O)c4ccccn4)N3[C@@H](C#N)[C@H](C2)N1C | 7.27 | 6.57 | 3.8 | 22.1 | 11.9 | 9.17 | 15.1 | 30 | 32.1 | 15.6 |  |
| COC1=C(C)C(=O)C2=C(C1=O)[C@@H]1[C@@H]3CC4=C(C(=O)C(OC)=C(C)C4=O)[C@H](CNC(=O)OC(C)(C)C)N3[C@@H](C#N)[C@H](C2)N1C | 7.41 | 18.4 | 5.38 | > 100 | 22.7 | 29.4 | 12.9 | 34.3 | 66.2 | 8.89 |  |
| COC1=C(C)C(=O)C2=C(C1=O)[C@@H]1[C@@H]3CC4=C(C(=O)C(OC)=C(C)C4=O)[C@H](CNC(=O)c4nccc5ccccc45)N3[C@@H](C#N)[C@H](C2)N1C | 26.6 | 85.4 | 84.7 | > 100 | 98 | 75 | > 100 | 88.6 | 58.5 | 24.2 |  |
| COC1=C(C)C(=O)C2=C(C1=O)[C@@H]1[C@@H]3CC4=C(C(=O)C(OC)=C(C)C4=O)[C@H](CNC(=O)C(C)=O)N3[C@@H](C#N)[C@H](C2)N1C [SAFRAMYCIN A] | 1.06 | 2.54 | 1.83 | 2.49 | 2.75 | 2.23 | 9.56 | 40.4 | 11 | 6.39 |  |
| COC1=C(C)C(=O)C2=C(C1=O)[C@@H]1[C@@H]3CC4=C(C(=O)C(OC)=C(C)C4=O)[C@H](CNC(=O)/C=C/c4cccc(C(F)(F)F)c4)N3[C@@H](C#N)[C@H](C2)N1C | 7.9 | > 100 | 29.7 | 43.3 | 39.8 | 11.7 | 28.9 | 77.1 | 22.3 | 4.2 |  |
| COC1=C(C)C(=O)C2=C(C1=O)[C@@H]1[C@@H]3CC4=C(C(=O)C(OC)=C(C)C4=O)[C@H](CNC(=O)c4cccc(C(F)(F)F)c4)N3[C@@H](C#N)[C@H](C2)N1C | 43.2 | 25.7 | 21 | > 100 | 47.1 | 53.9 | 30.6 | > 100 | 58.5 | 26.1 |  |
| COC1=C(C)C(=O)C2=C(C1=O)[C@@H]1[C@@H]3CC4=C(C(=O)C(OC)=C(C)C4=O)[C@H](CNC(=O)c4cnccn4)N3[C@@H](C#N)[C@H](C2)N1C | 1.89 | 1.53 | 1.87 | 10.5 | 7.17 | 1.85 | 1.61 | 1.89 | 12.1 | 3.06 | 20 |
| COC1=C(C)C(=O)C2=C(C1=O)[C@@H]1[C@@H]3CC4=C(C(=O)C(OC)=C(C)C4=O)[C@H](CNC(=O)/C=C/c4ccc(OC)c(OC)c4OC)N3[C@@H](C#N)[C@H](C2)N1C | 3.85 | > 100 | 11.4 | 27.4 | 33.7 | 9.85 | 15.5 | 81.8 | 6.27 | 5.44 |  |
| COc1c(C)cc2c(c1O)[C@@H]1[C@@H]3Cc4cc(C)c(OC)c(O)c4[C@H](CNC(=O)OC(C)(C)C)N3[C@@H](C#N)[C@H](C2)N1C | 92.7 | 19.5 | 32.4 | 63.8 | 45 | 31.4 | 23.7 | 26.8 | 32.1 | 17.3 |  |
| COC1=C(C)C(=O)C2=C(C1=O)[C@@H]1[C@@H]3CC4=C(C(=O)C(OC)=C(C)C4=O)[C@H](CNC(=O)c4cc(Br)ccc4Cl)N3[C@@H](C#N)[C@H](C2)N1C | > 100 |  |  | > 100 |  |  |  |  | 66.2 |  |  |
| COC1=C(C)C(=O)C2=C(C1=O)[C@@H]1[C@@H]3CC4=C(C(=O)C(OC)=C(C)C4=O)[C@H](CNC(=O)/C=C/c4ccnc5ccccc45)N3[C@@H](C#N)[C@H](C2)N1C | 8.33 | 23.4 | 18.2 | 18.2 | 17.5 | 5.7 | 11.5 | 35.7 | 17.1 | 2.23 |  |
| CCc1ccc(/C=C/C(=O)NC[C@H]2C3=C(C[C@H]4[C@H]5C6=C(C[C@@H]([C@H](C#N)N24)N5C)C(=O)C(C)=C(OC)C6=O)C(=O)C(C)=C(OC)C3=O)cc1 | 8.68 | > 100 | 24.3 | > 100 | 25.5 | 28.4 | 52.1 | 96.7 | 21.2 | 18.5 |  |
| COC1=C(C)C(=O)C2=C(C1=O)[C@@H]1[C@@H]3CC4=C(C(=O)C(OC)=C(C)C4=O)[C@H](CNC(=O)CNC(=O)c4ccccc4)N3[C@@H](C#N)[C@H](C2)N1C | 10.7 | 16.7 | 22.4 | 58.5 | 43.9 | 16.9 | 23.6 | 10 | 27.7 | 39.5 |  |
| COC1=C(C)C(=O)C2=C(C1=O)[C@@H]1[C@@H]3CC4=C(C(=O)C(OC)=C(C)C4=O)[C@H](CNC(=O)c4cc(OC)c(OC)c(OC)c4)N3[C@@H](C#N)[C@H](C2)N1C | 2.52 | 3.38 | 3.03 | 14.9 | 3.67 | 1.27 | 3.63 | 18.8 | 4.19 | 1.13 |  |
| COC1=C(C)C(=O)C2=C(C1=O)[C@@H]1[C@@H]3CC4=C(C(=O)C(OC)=C(C)C4=O)[C@H](CNC(=O)/C=C/c4ccc(C(C)(C)C)cc4)N3[C@@H](C#N)[C@H](C2)N1C | 31.2 | > 100 | > 100 | > 100 |  | 26.3 | > 100 | > 100 | 31 | 25.6 |  |
| COC1=C(C)C(=O)C2=C(C1=O)[C@@H]1[C@@H]3CC4=C(C(=O)C(OC)=C(C)C4=O)[C@H](CNC(=O)c4cc5ccccc5[nH]4)N3[C@@H](C#N)[C@H](C2)N1C | 5.29 | 17.5 | 11.5 | 90.5 | 11.2 | 14.9 | 19.7 | 35 | 26.3 | 22.9 |  |
| COC1=C(C)C(=O)C2=C(C1=O)[C@@H]1[C@@H]3CC4=C(C(=O)C(OC)=C(C)C4=O)[C@H](CNC(=O)c4cccs4)N3[C@@H](C#N)[C@H](C2)N1C | 17.4 | 27.2 | 16.4 | > 100 | 27.4 | 17.5 | 37.3 | > 100 | 4.19 | 45.2 |  |
| COC1=C(C)C(=O)C2=C(C1=O)[C@@H]1[C@@H]3CC4=C(C(=O)C(OC)=C(C)C4=O)[C@H](CNC(=O)c4ccco4)N3[C@@H](C#N)[C@H](C2)N1C | 2.58 | 1.68 | 1.22 | 12.4 | 3.87 | 3.55 | 3.01 | 0.95 | 16 | 15.3 |  |
| COC1=C(C)C(=O)C2=C(C1=O)[C@@H]1[C@@H]3CC4=C(C(=O)C(OC)=C(C)C4=O)[C@H](CNC(=O)/C=C/c4ccc(OC)cc4)N3[C@@H](C#N)[C@H](C2)N1C | 7.77 | 4.88 | 6.23 | 46.7 | 14.4 | 9.04 | 11 | 23.8 | 6.91 | 5.35 |  |
| COC1=C(C)C(=O)C2=C(C1=O)[C@@H]1[C@@H]3CC4=C(C(=O)C(OC)=C(C)C4=O)[C@H](CNC(=O)c4ccc5ccccc5n4)N3[C@@H](C#N)[C@H](C2)N1C | 9.51 | 19.8 | 23.7 | 43.4 | 29.6 | 16.6 | 69.9 | 65.3 | 21.5 | 14.9 |  |
| COC1=C(C)C(=O)C2=C(C1=O)[C@@H]1[C@@H]3CC4=C(C(=O)C(OC)=C(C)C4=O)[C@H](CNC(=O)c4ccc5c(c4)OCO5)N3[C@@H](C#N)[C@H](C2)N1C | 3.34 | 2.18 | 2.02 | 21.1 | 5.11 | 3.94 | 6.88 | 69 | 20 | 4.79 |  |
